Data taken from article PMC11847391, “Synthesis and biological activities of 3-aminoimidazo[1,2-α]pyridine compounds” (BMC Chemistry, 2025).

Assays:
[1] = tested on: HT-29 human colorectal adenocarcinoma cell line; experiment: Cytotoxicity, Trypan blue exclusion test, HT-29; assay type: cell-based; conditions: for IC50: HT-29, 24 h, Trypan blue exclusion, mean ± SD of two independent experiments
Protocol: (§1) The synthesized compounds were assessed for their cytotoxic effects on three different cancer cell lines: the MCF-7 human breast cancer cell line (ATCC number: HTB-22), the HT-29 human colorectal adenocarcinoma cell line [HTB-38; American Type Culture Collection (ATCC), Manassas, VA, USA], and the B16F10 murine melanoma cancer cell line [CRL-6475; American Type Culture Collection (ATCC), Manassas, VA, USA], as well as the normal cell line mouse Embryonic Fibroblast-1 cell line (MEF-1; ATCC CRL-2214). The cell line was cultivated in high-glucose Dulbecco’s Modified Eagle Medium (DMEM) that is supplemented with L-glutamine, phenol red (Fuji Film Wako, Osaka, Japan), 10% fetal bovine serum (FBS; G.E. Healthcare, Chicago, IL, USA), and 1% penicillin/streptomycin (P/S) (Nacalai Tesque, Kyoto, Japan). Exponentially growing cells (1 × 10^5 cells/well) were seeded in a 24-well plate with sterile-filtered DMEM medium at 37 °C under 5% CO2 and incubated overnight. The cells were then treated with different concentrations of test compounds (5, 10, 50, and 100 µg/mL) and incubated for 24 h in a humidified atmosphere. After 24 h of incubation, viable cells were counted in each well using the Trypan blue exclusion test. All compounds were initially dissolved in DMSO, and the final concentration of DMSO was less than 1% in all of the considered concentrations of the applied compounds. The IC50 values from at least two independent experiments were compared with the control and expressed as the mean ± SD. The analysis of two groups was performed using the student t-test, and P-values < 0.05 were statistically significant.

[2] = tested on: MCF-7 human breast cancer cell line; experiment: Cytotoxicity, Trypan blue exclusion test, MCF-7; assay type: cell-based; conditions: for IC50: MCF-7, 24 h, Trypan blue exclusion, mean ± SD of two independent experiments
Protocol: as §1

[3] = tested on: B16F10 murine melanoma cancer cell line; experiment: Cytotoxicity, Trypan blue exclusion test, B16F10; assay type: cell-based; conditions: for IC50: B16F10, 24 h, Trypan blue exclusion, mean ± SD of two independent experiments
Protocol: as §1

[4] = tested on: mouse Embryonic Fibroblast-1 cell line (MEF-1); experiment: Cytotoxicity, Trypan blue exclusion test, normal MEF cells; assay type: cell-based; conditions: for IC50: 24 h, normal cell line MEF, Trypan blue exclusion, mean ± SD of two independent experiments
Protocol: as §1

[5] = tested on: HT-29 cell line; experiment: Morphological changes of treated HT-29 cells; assay type: cell-based, human; conditions: high concentrations (≥ 50 µg/ml), versus untreated cancer cells
Source text: (§2) In comparison to the control (untreated cancer cells), the three cancer cell lines (MCF-7, HT-29, and B16F10) were investigated for morphological changes after being treated with the synthesized compounds 9–19.

[6] = tested on: B16F10 cell line; experiment: Morphological changes of treated B16F10 cells; assay type: cell-based, murine; conditions: high concentrations (≥ 50 µg/ml), versus untreated cancer cells
Source text: as §2

Compound	IC50 ([1]; Homo sapiens)	IC50 ([2]; Homo sapiens, MCF7, 24 h)	IC50 ([4]; Mus musculus, MEF)	IC50 [1]	IC50 [2]	IC50 [3]	IC50 [4]	other results
CC(=O)O[C@H]1C(=O)[C@@]2(C)[C@H]([C@H](OC(=O)c3ccccc3)[C@]3(O)C[C@H](OC(=O)[C@H](O)[C@@H](NC(=O)c4ccccc4)c4ccccc4)C(C)=C1C3(C)C)[C@]1(OC(C)=O)CO[C@@H]1C[C@@H]2O [Paclitaxel (Taxol), Paclitaxel, reference compound]	0.0166 µM	0.00834 µM	17.2 µM					IC50 ([3]; Mus musculus, B16-F10, 24 h): 55.7 µM
Cc1cccc(-c2nc3ccccn3c2Nc2ccc(Cl)cc2)c1 [Compound 14, N-(4-chlorophenyl)−2-(m-tolyl)imidazo[1,2-a]pyridin-3-amine]	44.45 ± 0.15 µM		> 200 µM					Morphological changes, HT-29 [5]: shrinkage and lost their original form; Morphological changes, B16F10 [6]: shrinkage and lost their original form; IC50 ([3]; Mus musculus, B16-F10, 24 h): 21.8 ± 0.81 µM
COc1ccc(-c2nc3ccccn3c2Nc2ccc(Cl)cc2)c(OC)c1OC [Compound 9, N-(4-chlorophenyl)−2-(2,3,4-trimethoxyphenyl)imidazo[1,2-a]pyridin-3-amine]								Cytotoxicity against HT-29 (in words) [1]: ineffective; Cytotoxicity against MCF-7 (in words) [2]: ineffective; Cytotoxicity against B16F10 (in words) [3]: ineffective
FC(F)(F)c1ccc(-c2nc3ccccn3c2Nc2ccc(Cl)cc2)cc1 [C00011]				85.5 ± 18.8 µM	> 200 µM	195 ± 15.3 µM	63.9 ± 2.33 µM	
Fc1ccc(-c2nc3ccccn3c2Nc2ccc(Cl)cc2)c(F)c1 [C00010]				10.1 ± 0.7 µM		14.39 ± 0.04 µM	16.31 ± 0.08 µM	
Cc1cccc(-c2nc3ccccn3c2Nc2ccc(Cl)cc2)c1 [C00006]					195 ± 19.9 µM			
COc1ccc(-c2nc3ccccn3c2Nc2ccc(Cl)cc2)cc1OCc1ccccc1 [Compound 10, 2-(3-(Benzyloxy)−4-methoxyphenyl)-N-(4-chlorophenyl)imidazo[1,2-a]pyridin-3-amine]								Cytotoxicity against HT-29 (in words) [1]: ineffective; Cytotoxicity against MCF-7 (in words) [2]: ineffective; Cytotoxicity against B16F10 (in words) [3]: ineffective
Clc1ccc(Nc2c(-c3ccco3)nc3ccccn23)cc1 [C00005]				48.3 ± 0.53 µM	66.5 ± 37.9 µM	197 ± 14.4 µM	32.93 ± 0.09 µM	
COc1cccc(-c2nc3ccccn3c2Nc2ccc(Cl)cc2)c1OC [C00007]				> 200 µM	> 200 µM	> 200 µM	> 200 µM	
O=[N+]([O-])c1ccccc1-c1nc2ccccn2c1Nc1ccc(Cl)cc1 [Compound 12, N-(4-chlorophenyl)−2-(2-nitrophenyl)imidazo[1,2-a]pyridin-3-amine]	4.15 ± 2.93 µM	30.9 ± 14.4 µM	40.5 ± 4.34 µM					Morphological changes, HT-29 [5]: shrinkage and lost their original form; Morphological changes, B16F10 [6]: shrinkage and lost their original form; IC50 ([3]; Mus musculus, B16-F10, 24 h): 64.8 ± 15.8 µM; Cytotoxicity against normal cells relative to HT-29 (fold lower) ([4]; MEF IC50 versus HT-29 IC50): tenfold
Clc1ccc(Nc2c(-c3ccsc3)nc3ccccn23)cc1 [C00009]				> 200 µM	> 200 µM	> 200 µM	> 200 µM	
Clc1ccc(Nc2c(-c3ccc4ccccc4c3)nc3ccccn23)cc1 [Compound 16, N-(4-chlorophenyl)−2-(naphthalen-2-yl)imidazo[1,2-a]pyridin-3-amine]	93.08 ± 0.61 µM	84 ± 3.37 µM						Cytotoxicity against B16F10 (in words) [3]: inactive
Fc1ccc(-c2nc3ccccn3c2Nc2ccc(Cl)cc2)c(F)c1 [Compound 18, N-(4-chlorophenyl)−2-(2,4-difluorophenyl)imidazo[1,2-a]pyridin-3-amine]	10.1 ± 0.7 µM	14.8 ± 0.2 µM	16.31 ± 0.08 µM	< 15 µM	< 15 µM	< 15 µM		IC50 ([3]; Mus musculus, B16-F10, 24 h): 14.39 ± 0.04 µM
COc1cccc(-c2nc3ccccn3c2Nc2ccc(Cl)cc2)c1OC [Compound 15, N-(4-chlorophenyl)−2-(2,3-dimethoxyphenyl)imidazo[1,2-a]pyridin-3-amine]								Cytotoxicity against HT-29 (in words) [1]: ineffective; Cytotoxicity against MCF-7 (in words) [2]: ineffective; Cytotoxicity against B16F10 (in words) [3]: ineffective
Clc1ccc(Nc2c(-c3c[nH]c4ccccc34)nc3ccccn23)cc1 [C00003]				18.3 ± 1.22 µM	20.47 ± 0.1 µM	39.2 ± 1.84 µM	1.84 ± 0.83 µM	
Clc1ccc(Nc2c(-c3c[nH]c4ccccc34)nc3ccccn23)cc1 [Compound 11, N-(4-chlorophenyl)−2-(1 H-indol-3-yl)imidazo[1,2-a]pyridin-3-amine]	18.3 ± 1.22 µM	20.47 ± 0.1 µM	1.84 ± 0.83 µM				< 1.84 µM	IC50 ([3]; Mus musculus, B16-F10, 24 h): 39.2 ± 1.84 µM
Clc1ccc(Nc2c(-c3ccsc3)nc3ccccn23)cc1 [Compound 17, N-(4-chlorophenyl)−2-(thiophen-3-yl)imidazo[1,2-a]pyridin-3-amine]								Cytotoxicity against HT-29 (in words) [1]: ineffective; Cytotoxicity against MCF-7 (in words) [2]: ineffective; Cytotoxicity against B16F10 (in words) [3]: ineffective
FC(F)(F)c1ccc(-c2nc3ccccn3c2Nc2ccc(Cl)cc2)cc1 [Compound 19, N-(4-chlorophenyl)−2-(4-(trifluoromethyl)phenyl)imidazo[1,2-a]pyridin-3-amine]	85.5 ± 18.8 µM	≥ 200 µM	63.9 ± 2.33 µM					IC50 ([3]; Mus musculus, B16-F10, 24 h): ≥ 200 µM
Clc1ccc(Nc2c(-c3ccco3)nc3ccccn23)cc1 [Compound 13, N-(4-chlorophenyl)−2-(furan-2-yl)imidazo[1,2-a]pyridin-3-amine]	48.3 ± 0.53 µM	66.5 ± 37.9 µM	32.93 ± 0.09 µM	> 45 µM	> 45 µM			
Clc1ccc(Nc2c(-c3ccc4ccccc4c3)nc3ccccn23)cc1 [C00008]						> 200 µM	> 200 µM	
COc1ccc(-c2nc3ccccn3c2Nc2ccc(Cl)cc2)cc1OCc1ccccc1 [C00002]				> 200 µM	> 200 µM	> 200 µM	18.5 ± 0.33 µM	
COc1ccc(-c2nc3ccccn3c2Nc2ccc(Cl)cc2)c(OC)c1OC [C00001]				> 200 µM	> 200 µM	> 200 µM	> 200 µM	
